Our source for the IC50 and viability, T/C values is PubChem BioAssay AID1845219 (Molecular Pharmacology Branch, DTP, NCI, 2023).

For the assay, the system named is SYO-1 tumor spheroids, viability % test/control. Briefly: Anticancer human tumor SYO-1 cell line growth inhibition.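 As to all read-outs here: spheroids exposed to agents for 7 days before viability read.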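 As to viability, T/C: 100% = DMSO vehicle control.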 Particulars: spheroids with HUVEC and MSC; for viability, T/C: stronger effect = lower value. In a few lines:
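Single agents and combinations were tested on spheroids built from tumor cells plus HUVEC and hMSC, at half-log dilutions starting at or near clinical Cmax, else 10 microM; final DMSO 0.25% (v/v).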

Setting [1] is: curve of first compound, second compound 0.003 µM.
Setting [2] is: second compound 0.003 µM, first compound 0.0316 µM.
Setting [3] is: second compound 0.003 µM, first compound 0.1 µM.
The mark [4] stands for this setting: second compound 0.003 µM, first compound 0.316 µM.
Where [5] appears, read: second compound 0.003 µM, first compound 1 µM.
Setting [6] is: second compound 0.003 µM, first compound 3.16 µM.
[7] abbreviates: second compound 0.003 µM, first compound 10 µM.

A word on the IC50: it is the concentration needed to halve the response being measured. In general, viability, T/C refers to the result in the treated group divided by that in the control group, in per cent.

Values joined by “and” are separate entries in the source; they are usually repeats but may differ in a detail not shown here. Identical values can stand only once. Bounds are passed on as bounds.

`CC(C)n1c(=O)n(C)c2cnc3cc(F)c(-c4ccc(OCCCN5CCCCC5)nc4)cc3c21` + CC[C@@]1(O)C(=O)OCc2c1cc1n(c2=O)Cc2cc3c(CN(C)C)c(O)ccc3nc2-1: the IC50 is < 31.6 nM under setting [1]; < 31.6 nM (curve of first compound, second compound 0.00949 µM); < 31.6 nM (curve of first compound, second compound 0.03 µM); < 31.6 nM (curve of first compound, second compound 0.0949 µM); < 31.6 nM (curve of first compound, second compound 0.3 µM). Besides, the viability, T/C under setting [2] is 7.3%; the viability, T/C under setting [3] was 7.98%; the viability, T/C under setting [4] was 8.08%; the viability, T/C under setting [5] was 5.73%; the viability, T/C under setting [6] is 1.45%; the viability, T/C under setting [7] is 0.47%. The viability, T/C runs as follows: (second compound 0.00949 µM, first compound 0.0316 µM) 2.88%; (second compound 0.00949 µM, first compound 0.1 µM) 3.1%; (second compound 0.00949 µM, first compound 0.316 µM) 2.8%; (second compound 0.00949 µM, first compound 1 µM) 2.56%; (second compound 0.00949 µM, first compound 3.16 µM) 1.27%; (second compound 0.00949 µM, first compound 10 µM) 0.3%. Also, the viability, T/C (second compound 0.03 µM, first compound 0.0316 µM) is 2.53%; the viability, T/C (second compound 0.03 µM, first compound 0.1 µM) was 2.44%; the viability, T/C (second compound 0.03 µM, first compound 0.316 µM) is 2.23%; the viability, T/C (second compound 0.03 µM, first compound 1 µM) is 2.14%; the viability, T/C (second compound 0.03 µM, first compound 3.16 µM) was 1.02%; the viability, T/C (second compound 0.03 µM, first compound 10 µM) is 0.26%. Moreover, the viability, T/C reads like this: (second compound 0.0949 µM, first compound 0.0316 µM) 1.61%; (second compound 0.0949 µM, first compound 0.1 µM) 1.69%; (second compound 0.0949 µM, first compound 0.316 µM) 1.67%; (second compound 0.0949 µM, first compound 1 µM) 1.34%; (second compound 0.0949 µM, first compound 3.16 µM) 1.18%; (second compound 0.0949 µM, first compound 10 µM) 0.25%. Further, the viability, T/C (second compound 0.3 µM, first compound 0.0316 µM) was 1.48%; the viability, T/C (second compound 0.3 µM, first compound 0.1 µM) is 1.31%; the viability, T/C (second compound 0.3 µM, first compound 0.316 µM) is 1.3%; the viability, T/C (second compound 0.3 µM, first compound 1 µM) was 1.31%; the viability, T/C (second compound 0.3 µM, first compound 3.16 µM) is 0.93%; the viability, T/C (second compound 0.3 µM, first compound 10 µM) was 0.28%.
Take `CC1COCCN1c1cc(-c2ccnn2C)c2ccnc(-c3ccn[nH]3)c2n1` (stereo unspecified): the viability, T/C (compound 0.1 µM) was 3.02% and 9.27% and 5.04%; the viability, T/C (compound 0.316 µM) was 1.96% and 2.61% and 2.62%; the viability, T/C (compound 1 µM) is 1.13% and 1.61% and 1.44%; the viability, T/C (compound 3.16 µM) was 0.59% and 0.92% and 0.71%; the viability, T/C (compound 10 µM) is 0.6% and 0.99% and 0.58%. The IC50 (curve of compound) is < 31.6 nM and 32.1 nM.
For `Cn1nnc2c(C(N)=O)ncn2c1=O`, the viability, T/C (compound 1 µM) is 102% [middle of 9 runs]; the viability, T/C (compound 3.16 µM) was 98.2% [middle of 10 runs]; the viability, T/C (compound 10 µM) was 100% [middle of 10 runs]; the viability, T/C (compound 31.6 µM) was 106% [middle of 10 runs]. Also, where the note is “compound alone, run of 12/02/2019”, the IC50 is > 100000 nM and 88300 nM.
Turning to `CC1COCCN1c1cc(-c2ccnn2C)c2ccnc(-c3ccn[nH]3)c2n1` (stereo unspecified) + COc1cc2c(cc1O)CCNC21CSC2c3c(OC(C)=O)c(C)c4c(c3C(COC1=O)N1C(O)C3Cc5cc(C)c(OC)c(O)c5C(C21)N3C)OCO4, the IC50 (curve of first compound, second compound 30 pM) is < 31.6 nM; the IC50 (curve of first compound, second compound 94.9 pM) was < 31.6 nM; the IC50 (curve of first compound, second compound 0.0003 µM) was < 31.6 nM; the IC50 (curve of first compound, second compound 0.000949 µM) was < 31.6 nM; the IC50 under setting [1] was < 31.6 nM. Also, the viability, T/C was 3.62% (second compound 30 pM, first compound 0.0316 µM); 1.79% (second compound 30 pM, first compound 0.1 µM); 1.29% (second compound 30 pM, first compound 0.316 µM); 0.95% (second compound 30 pM, first compound 1 µM); 0.42% (second compound 30 pM, first compound 3.16 µM); 0.48% (second compound 30 pM, first compound 10 µM). Further, the viability, T/C (second compound 94.9 pM, first compound 0.0316 µM) was 1.83%; the viability, T/C (second compound 94.9 pM, first compound 0.1 µM) is 1.41%; the viability, T/C (second compound 94.9 pM, first compound 0.316 µM) was 1.17%; the viability, T/C (second compound 94.9 pM, first compound 1 µM) was 0.6%; the viability, T/C (second compound 94.9 pM, first compound 3.16 µM) was 0.3%; the viability, T/C (second compound 94.9 pM, first compound 10 µM) is 0.41%. Besides, the viability, T/C (second compound 0.0003 µM, first compound 0.0316 µM) is 1.24%; the viability, T/C (second compound 0.0003 µM, first compound 0.1 µM) is 1.22%; the viability, T/C (second compound 0.0003 µM, first compound 0.316 µM) is 0.9%; the viability, T/C (second compound 0.0003 µM, first compound 1 µM) is 0.63%; the viability, T/C (second compound 0.0003 µM, first compound 3.16 µM) is 0.26%; the viability, T/C (second compound 0.0003 µM, first compound 10 µM) is 0.29%. The viability, T/C (second compound 0.000949 µM, first compound 0.0316 µM) was 1.03%; the viability, T/C (second compound 0.000949 µM, first compound 0.1 µM) is 0.61%; the viability, T/C (second compound 0.000949 µM, first compound 0.316 µM) was 0.54%; the viability, T/C (second compound 0.000949 µM, first compound 1 µM) was 0.31%; the viability, T/C (second compound 0.000949 µM, first compound 3.16 µM) was 0.2%; the viability, T/C (second compound 0.000949 µM, first compound 10 µM) was 0.19%. Also, the viability, T/C by setting is: under setting [2], 0.11%; under setting [3], 0.11%; under setting [4], 0.09%; under setting [5], 0.09%; under setting [6], 0.1%; under setting [7], 0.16%.
